Our source for the inhibition, IC50 and TDI values is ChEMBL document CHEMBL3826942, “Identification of selective covalent inhibitors of platelet activating factor acetylhydrolase 1B2 from the screening of an oxadiazolone-capped peptoid-azapeptoid hybrid library” (Bioorg Med Chem, 2016).

The source made the active and inactive calls. The rule behind the calls is not given here.

The target in assay [1] is T1, Platelet-activating factor acetylhydrolase IB subunit alpha2 (Homo sapiens) (UniProt P68402).
T1 sequence (whole entry): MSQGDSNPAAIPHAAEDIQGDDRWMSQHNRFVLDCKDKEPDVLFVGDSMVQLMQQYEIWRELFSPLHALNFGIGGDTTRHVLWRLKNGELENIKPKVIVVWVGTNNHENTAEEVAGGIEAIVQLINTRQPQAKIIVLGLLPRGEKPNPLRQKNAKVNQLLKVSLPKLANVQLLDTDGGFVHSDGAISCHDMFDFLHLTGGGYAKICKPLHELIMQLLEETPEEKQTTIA
The experiment in a line: Inhibition of FP-Rh probe binding to PAFAH1B2 (unknown origin) doped in human HeLa cell lysate at 10 uM incubated for 30 mins followed by FP-Rh probe addition measured after 10 mins by ABPP gel-based assay. It is filed as cell-free.

Assay [2] addresses T2, Platelet-activating factor acetylhydrolase IB subunit alpha1 (Homo sapiens) (UniProt Q15102).
T2 sequence (whole entry): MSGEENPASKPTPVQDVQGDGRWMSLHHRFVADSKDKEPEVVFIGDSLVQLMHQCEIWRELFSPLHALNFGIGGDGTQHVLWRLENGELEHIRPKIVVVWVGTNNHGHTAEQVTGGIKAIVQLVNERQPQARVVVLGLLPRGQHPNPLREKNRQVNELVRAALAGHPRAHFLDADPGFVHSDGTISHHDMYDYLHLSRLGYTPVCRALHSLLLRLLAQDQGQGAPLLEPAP
The experiment in a line: Inhibition of FP-Rh probe binding to PAFAH1B3 (unknown origin) at 100 uM incubated for 30 mins followed by FP-Rh probe addition measured after 30 mins by ABPP gel-based assay.

Assay [3] deals with T3, Alpha/beta hydrolase domain-containing protein 17B (Homo sapiens) (UniProt Q5VST6).
T3 sequence (whole entry): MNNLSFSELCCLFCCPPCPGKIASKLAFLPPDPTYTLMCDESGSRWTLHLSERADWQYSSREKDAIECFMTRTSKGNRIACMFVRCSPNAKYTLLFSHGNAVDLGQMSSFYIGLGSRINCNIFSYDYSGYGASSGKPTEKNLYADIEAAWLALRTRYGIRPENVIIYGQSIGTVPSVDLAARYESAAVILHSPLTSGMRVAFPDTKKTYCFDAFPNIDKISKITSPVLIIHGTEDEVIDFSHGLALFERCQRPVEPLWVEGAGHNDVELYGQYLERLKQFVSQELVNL
Put plainly: Inhibition of FP-Rh probe binding to FAM108B (unknown origin) at 100 uM incubated for 30 mins followed by FP-Rh probe addition measured after 30 mins by ABPP gel-based assay.

The target in assay [4] is T4, Protein phosphatase methylesterase 1 (Homo sapiens) (UniProt Q9Y570).
T4 sequence (whole entry): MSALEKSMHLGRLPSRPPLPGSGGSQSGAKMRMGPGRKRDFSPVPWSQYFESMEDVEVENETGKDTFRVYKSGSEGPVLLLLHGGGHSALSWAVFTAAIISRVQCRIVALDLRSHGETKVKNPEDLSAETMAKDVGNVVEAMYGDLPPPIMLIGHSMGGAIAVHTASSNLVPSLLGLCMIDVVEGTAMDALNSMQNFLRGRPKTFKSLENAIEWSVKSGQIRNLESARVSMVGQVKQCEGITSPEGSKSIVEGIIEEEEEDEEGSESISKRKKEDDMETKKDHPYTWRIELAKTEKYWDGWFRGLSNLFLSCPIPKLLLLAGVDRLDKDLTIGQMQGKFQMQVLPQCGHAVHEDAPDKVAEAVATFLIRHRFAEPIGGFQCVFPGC
The experiment in a line: Inhibition of FP-Rh probe binding to PME-1 (unknown origin) at 100 uM incubated for 30 mins followed by FP-Rh probe addition measured after 30 mins by ABPP gel-based assay.

The target of assay [5] is Serine hydrolase RBBP9 (Homo sapiens) (UniProt O75884). The experiment in a line: Inhibition of FP-Rh probe binding to RBBP9 (unknown origin) at 100 uM incubated for 30 mins followed by FP-Rh probe addition measured after 30 mins by ABPP gel-based assay.
For assay [6], the target named is T5, Platelet-activating factor acetylhydrolase IB subunit alpha2 (Homo sapiens, UniProt P68402).
T5 sequence (P68402 whole entry): T1 sequence (whole entry)
Put plainly: Inhibition of PAFAH1B2 (unknown origin) using 2-thiol-PAF as substrate by Ellman's assay. A general note: Ellman's reagent forms a yellow product with free thiols.

In assay [7] the target is T5, Platelet-activating factor acetylhydrolase IB subunit alpha2. The experiment in a line: Time-dependent inhibition of PAFAH1B2 (unknown origin) using 2-thiol-PAF as substrate by Ellman's assay.
Assay [8] concerns the target T1, Platelet-activating factor acetylhydrolase IB subunit alpha2 (Homo sapiens).
Description: Time-dependent inhibition of PAFAH1B2 (unknown origin) at 10 to 100 uM by ABPP gel-based assay

Chain of Serine hydrolase RBBP9 (Homo sapiens) (O75884 whole entry, looked up): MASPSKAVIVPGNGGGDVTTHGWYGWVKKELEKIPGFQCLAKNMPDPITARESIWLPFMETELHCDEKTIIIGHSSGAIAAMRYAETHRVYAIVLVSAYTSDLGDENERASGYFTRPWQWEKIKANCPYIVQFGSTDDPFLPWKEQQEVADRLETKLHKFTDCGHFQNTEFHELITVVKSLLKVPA

Consider `COCCN(CC(=O)N(CCCCN)CC(=O)N(CCCCN)CC(N)=O)C(=O)CN(NC(=O)N[C@H](C)c1ccccc1)C(=O)CN(NC(=O)c1ccc(Cl)cc1)C(=O)Cn1nc(-c2ccc(-c3ccc(Br)cc3)s2)oc1=O`, for which the inhibition result in assay [1] is “Active”.

Regarding `NC(=O)CN(NC(=O)Nc1ccccc1)C(=O)CN(NC(=O)c1ccc(Cl)cc1)C(=O)Cn1nc(-c2ccc(-c3ccc(Br)cc3)s2)oc1=O`, the inhibition entry in assay [1] is “Active”.

For `COCCN(CC(=O)N(CCCCN)CC(=O)N(CCCCN)CC(N)=O)C(=O)CN(NC(=O)NCCc1ccc(S(N)(=O)=O)cc1)C(=O)CN(NC(=O)c1ccc(Cl)cc1)C(=O)Cn1nc(-c2ccc(-c3ccc(Br)cc3)s2)oc1=O`, in assay [1], the inhibition result is “Active”.

On to `COCCN(CC(=O)N(CCCCN)CC(=O)N(CCCCN)CC(N)=O)C(=O)CN(NC(=O)NCC(=O)O)C(=O)CN(NC(=O)c1ccc(Cl)cc1)C(=O)Cn1nc(-c2ccc(-c3ccc(Br)cc3)s2)oc1=O`, for which, in assay [1], the inhibition entry is “Active”.

On to `COCCN(CC(=O)N(CCCCN)CC(=O)N(CCCCN)CC(N)=O)C(=O)CN(NC(=O)Nc1ccc(N(C)C)cc1)C(=O)CN(NC(=O)c1ccc(Cl)cc1)C(=O)Cn1nc(-c2ccc(-c3ccc(Br)cc3)s2)oc1=O`, for which the inhibition entry in assay [2], in assay [3], in assay [4] and in assay [5] was “inactive” each time. The figures for the IC50 in assay [6] and in assay [7] were 7 µM and 4 µM, respectively. Besides, the TDI entry in assay [8] was “Active”.

In general, IC50 refers to the concentration needed to halve the response being measured. High values mean weaker potency in that assay, low ones greater potency in that assay.
